Source: US20080267862A1, “METHOD OF TREATING CANCER” (priority 2007, published 2008)

Experiments:
[1] = test system: recurrence lymph node masses; assay: clinical response of recurrent lymph node masses in a patient followed by palliative chemotherapy; assay type: in vivo, human; conditions: one patient; LMH 4 g/day I.V. for 4 days, then 2 cycles of palliative chemotherapy with Cisplatin and 5 FU
From the text: […] They underwent Radical surgery in the form of total excision of primary tumors and bilateral Supra-omohyoid Neck dissection. Adjuvant External Beam Radiotherapy (EBRT) was then given 66 Gy/33 Fr 6½ weeks and the patient went into complete remission and was disease free for >9 months.
Subsequently, the patient had multiple nodal recurrences presenting with palpable masses.
(§1) Recurrences were confirmed with biopsy and HP examination. Subsequently, the patient was given 2 cycles of Palliative Chemotherapy, following Injection LMH (Lysine Monohydrochloride) for 4 days (4 g/day I.V. in divided doses), with Cisplatin and 5 FU.

[2] = test system: squamous cell carcinomatous tumor; assay: histopathology (HPE) of neo-angiogenesis 96 hrs after Injection LMH in a patient; assay type: in vivo, human; conditions: LMH 4 g/day I.V. for 4 days, HPE after 96 hrs
From the text: as §1
HPE was done 96 hrs after Injection LMH to confirm the neo-angiogenesis (FIGS. 4 & FIGS. 5 & FIGS. 6-9)(Also compare FIGS. 4 to 9 with FIGS. 10-11 for quantitative comparison of angiogenic response in LMH treated squamous cell carcinomatous tumor vs. control tumours).

[3] = induction of angiogenesis in-vivo; conditions: for effectiveness, on their own, in inducing angiogenesis response: each on its own
From the text: (§2) Lysine induced repair process depends on the ability of the amino acid/derivative(s) to induce rapid and controlled cellular expansion, both in-vitro and in-vivo. The phenomenon is probably based on the ability of the molecule(s) to act as the cell surface concentrator(s) of circulating growth factor(s). The rapid angiogenic property of the molecule(s) is also entirely dependent on the same phenomenon, where angiogenic factors are concentrated, locally, on the endothelial cell surface receptors, mediated by the molecule(s) working, possibly, as molecular bridges.

expanding cells in-vivo = assay: expanding cells in-vivo
From the text: The present invention is based on an improvement over the inventor's earlier discovery that lysine, without the presence of any other angiogenic factor(s)/angiogenic growth factor(s)/vasculogenic/granulation tissue inducing agent(s), is capable of inducing angiogenesis in ischaemic tissues. The inventor's initial inquiries were directed towards finding new chemical additives in a high-density-culture system, in-vitro, where the objective was to expand viable hybridoma cell mass to the maximum possible at the least possible time (lag phase minimization) and maintaining the viable cell mass in culture for the maximum possible time period, in both fed-batch as well as batch cultures. The final goal was to get highest possible yields of monoclonal antibody (Mab) in the said high-density culture. […] Because of its ability to expand cells in-vitro, the cationic amino acid was taken, along with its d-isomer and short oligomer (m.w. up to or around 500-2500) to in-vivo experimentation and clinical conditions, for controlled regeneration of cells (in clinical conditions), where in-situ regeneration of cells was centrally important along with angio-neogenesis/vasculogensis.

cells in culture = assay: cellular expansion / rapid cellular growth in culture in-vitro; assay type: cell-based; conditions: FIG. 3
From the text: as §2

hybridoma cell mass = conditions: high-density hybridoma culture, fed-batch and batch; Datta, D et al. 1997; cited from earlier work

Compound	outcome of recurrence lymph node masses [1]	angiogenic response in glandular structure (histopathology) ([2]; FIG. 4)	angiogenic response in tumor tissue (histopathology) ([2]; FIGS. 5-9, versus control FIGS. 10-11)	effectiveness, on their own, in inducing angiogenesis response [3]	effectiveness in inducing angiogenesis in-vivo, compared to l-lysine ([3]; in-vivo)	effectiveness in expanding cells in-vivo, compared to the l-variety (expanding cells in-vivo)	cellular expansion in culture (cells in culture; about 10 mcg/ml of added load, in addition to the usual load of l-lysine in the media)	effectiveness in expanding cells / inducing rapid cellular growth in-vitro, compared to l-lysine (cells in culture; in-vitro)	expansion of biomass (cell population) compared to other physico-chemical means (hybridoma cell mass)
Cl.NCCCC[C@H](N)C(=O)O [LMH, Lysine Monohydrochloride]	disappeared achieving a 2nd complete recovery	extensive angiogenic response	huge angiogenic and massive blood channel formation						
NCCCC[C@@H](N)C(=O)O [d-lysine]				equally effective	equally effective	equally effective	mediated cellular expansion in culture	equally effective	
NCCCC[C@H](N)C(=O)O [l-lysine]				equally effective					expand the biomass (cell population) at the least possible time
